# Experimental data reported in US20120100989A1, “3-Aryl-4-(2-thienylmethylene)isoxazol-5(4H)-ones as Fungicides” (Bayer CropScience AG, priority 2010, published 2012).
# Assay: log P by HPLC on reversed-phase columns (C 18), EEC directive 79/831 Annex V.A8
# Format: physicochemical
# Conditions: HPLC, acidic range pH 2.7, 0.1% aqueous formic acid and acetonitrile
# Procedure: The log P values were measured according to EEC directive 79/831 Annex V.A8 by HPLC (High Performance Liquid Chromatography) on reversed-phase columns (C 18), using the method below:
# The determination was carried out in the acidic range at pH 2.7 using the mobile phases 0.1% aqueous formic acid and acetonitrile; linear gradient from 10% acetonitrile to 95% acetonitrile.
row,Structure (SMILES),log P
1,Cc1ccc(C=C2C(=O)ON=C2c2ccccc2Cl)s1 [I-8],3.23

# Same assay, conditions: pH 2.7
row,Structure (SMILES),log P
1,O=C1ON=C(c2ccc(F)cc2)C1=Cc1ccc(Br)s1 [I-47],3.78
2,Cc1ccc(C2=NOC(=O)C2=Cc2ccc([N+](=O)[O-])s2)cc1 [U-18],3.62
3,COc1ccc(C2=NOC(=O)C2=Cc2ccc([N+](=O)[O-])s2)cc1 [U-17],6.31
4,O=C1ON=C(c2ccc(F)cc2)C1=Cc1ccc([N+](=O)[O-])s1 [I-54],3.32
5,Cc1ccc(C2=NOC(=O)C2=Cc2cc(-c3ccccc3)cs2)cc1 [I-69],5.30
6,O=C1ON=C(c2ccccc2)C1=Cc1cc(-c2ccccc2)cs1 [I-110],4.27
7,Cc1ccc(/C=C2\C(=O)ON=C2c2ccccc2)s1 [U-42],3.35
8,O=C1ON=C(c2ccc(Cl)cc2)C1=Cc1sccc1Br [I-61],4.23
9,CCOc1ccc(C2=NOC(=O)C2=Cc2ccc(Br)s2)cc1 [I-83],4.20
10,COc1ccc(C2=NOC(=O)C2=Cc2cc(-c3ccccc3)cs2)cc1 [I-62],4.23
11,COc1ccc(C2=NOC(=O)C2=Cc2sccc2C)cc1 [U-11],3.18
12,Cc1ccsc1C=C1C(=O)ON=C1c1cc(F)ccc1Cl [I-130],3.55
13,O=C1ON=C(c2ccc(F)cc2)C1=Cc1cc(-c2ccccc2)cs1 [I-67],4.27
14,O=C1ON=C(c2cc(Br)ccc2Cl)C1=Cc1cccs1 [I-128],3.74
15,O=C1ON=C(c2ccccc2)C1=Cc1cccs1 [U-33],2.91
16,Cc1ccsc1C=C1C(=O)ON=C1c1ccc([N+](=O)[O-])cc1 [U-23],3.18
17,O=C1ON=C(c2ccccc2Cl)C1=Cc1cc(Br)cs1 [I-11],3.92
18,O=C1ON=C(c2c(F)cccc2F)C1=Cc1cc(-c2ccccc2)cs1 [I-70],4.16
19,O=C1ON=C(c2ccc(-c3ccccc3)cc2)C1=Cc1cccs1 [I-66],4.16
20,CC(C)(C)c1ccc(C2=NOC(=O)C2=Cc2ccc(Br)s2)cc1 [I-93],5.13
21,O=C1ON=C(c2ccccc2I)C1=Cc1cccs1 [I-108],3.36
22,O=C1ON=C(c2ccc(Cl)cc2)C1=Cc1cc(Br)cs1 [I-31],4.19
23,Cc1ccsc1C=C1C(=O)ON=C1c1ccccc1 [U-29],3.18

row,Structure (SMILES),log P
1,O=C1ON=C(c2c(F)cccc2F)C1=Cc1cccs1 [I-59],2.97
2,CCOc1ccccc1C1=NOC(=O)C1=Cc1cccs1 [I-119],3.25
3,Cc1ccc(C2=NOC(=O)C2=Cc2sccc2C)c(C)c1 [I-97],3.85
4,COc1cccc(C2=NOC(=O)C2=Cc2ccc(Br)s2)c1 [I-68],3.79
5,COc1ccc(C2=NOC(=O)C2=Cc2sccc2C)cc1OC [U-26],3.17
6,O=C1ON=C(c2ccc(OC(F)(F)F)cc2)C1=Cc1ccc(Cl)s1 [I-36],4.42
7,O=C1ON=C(c2cc(Br)ccc2Br)C1=Cc1cccs1 [I-122],3.88
8,O=C1ON=C(c2ccc(-c3ccccc3)cc2)C1=Cc1ccc(Br)s1 [I-75],4.88
9,O=C1ON=C(c2ccc(F)cc2)C1=Cc1sccc1Br [I-60],3.74
10,O=C1ON=C(c2c(F)cccc2F)C1=Cc1ccc(Br)s1 [I-72],3.73
11,COc1cc(OC)cc(C2=NOC(=O)C2=Cc2cccs2)c1 [U-21],3.20
12,CCOc1ccccc1C1=NOC(=O)C1=Cc1ccc(Br)s1 [I-118],4.03
13,Cc1c(C=C2C(=O)ON=C2c2ccccc2Cl)sc2ccccc12 [I-140],4.31
14,COc1ccc(C2=NOC(=O)C2=Cc2cccs2)cc1OC [U-19],3.01
15,O=C1ON=C(c2cc(F)ccc2Cl)C1=Cc1cccs1 [I-127],3.28
16,Cc1cccc(C2=NOC(=O)C2=Cc2ccc(Br)s2)c1 [I-84],4.14
17,Cc1ccsc1C=C1C(=O)ON=C1c1ccc(C(C)(C)C)cc1 [I-28],4.58
18,O=C1ON=C(c2ccc(Cl)c(Cl)c2)C1=Cc1cccs1 [I-7],3.89
19,COc1cccc(C2=NOC(=O)C2=Cc2sccc2C)c1 [U-13],3.24
20,O=C1ON=C(c2ccccc2Cl)C1=Cc1ccc(Cl)s1 [I-9],3.90
21,CCc1sc(C=C2C(=O)ON=C2c2ccccc2Cl)cc1Br [I-10],3.87
22,O=C1ON=C(c2cc(F)ccc2Cl)C1=Cc1ccc(Br)s1 [I-129],4.06
23,Cc1ccsc1C=C1C(=O)ON=C1c1ccccc1Cl [I-18],3.38

row,Structure (SMILES),log P
1,Cc1ccc(C2=NOC(=O)C2=Cc2ccc(Cl)s2)cc1 [I-42],4.05
2,CCOc1ccccc1C1=NOC(=O)C1=Cc1cc(-c2ccccc2)cs1 [I-112],4.44
3,COc1cccc(C2=NOC(=O)C2=Cc2cccs2)c1OC [U-30],2.97
4,O=C1ON=C(c2ccc(Cl)cc2)C1=Cc1ccc(Br)s1 [I-50],4.21
5,COc1ccc(C2=NOC(=O)C2=Cc2sccc2Br)cc1 [I-39],3.65
6,CCOc1ccc(C2=NOC(=O)C2=Cc2ccc(C)s2)cc1 [I-81],3.70
7,CC(C)(C)c1ccc(C2=NOC(=O)C2=Cc2ccc(Cl)s2)cc1 [I-40],5.08
8,COc1cccc(C2=NOC(=O)C2=Cc2ccc([N+](=O)[O-])s2)c1 [U-15],3.38
9,O=C1ON=C(c2ccccc2[N+](=O)[O-])C1=Cc1cccs1 [I-120],2.69
10,CSCc1sc(C=C2C(=O)ON=C2c2ccccc2Cl)cc1Br [I-13],4.29
11,Cc1ccsc1C=C1C(=O)ON=C1c1cccc(C(F)(F)F)c1 [I-91],3.82
12,O=C1ON=C(c2ccccc2)C1=Cc1cc(Br)cs1 [U-36],3.71
13,Cc1ccc(C2=NOC(=O)C2=Cc2cccs2)c(C)c1 [I-90],3.60
14,Cc1ccsc1C=C1C(=O)ON=C1c1ccccc1OCc1ccccc1 [I-116],3.89
15,Cc1cccc(C2=NOC(=O)C2=Cc2cccs2)c1 [I-80],3.36
16,O=C1ON=C(c2ccc(F)cc2)C1=Cc1ccc(Cl)s1 [I-41],3.72
17,COc1ccc(C2=NOC(=O)C2=Cc2cc(Br)cs2)cc1 [U-16],3.71
18,Cc1cccc(C2=NOC(=O)C2=Cc2cccs2)c1C [I-123],3.48
19,Cc1sc(C=C2C(=O)ON=C2c2ccccc2Cl)cc1Br [I-12],4.73
20,Cc1ccc(C2=NOC(=O)C2=Cc2sccc2C)cc1 [U-8],3.57
21,O=C1ON=C(c2cccc([N+](=O)[O-])c2)C1=Cc1cccs1 [I-24],2.94
22,Cc1ccc(C=C2C(=O)ON=C2c2cc(Br)ccc2Cl)s1 [I-131],4.02
23,Cc1ccc(C=C2C(=O)ON=C2c2c(F)cccc2F)s1 [I-78],3.25

row,Structure (SMILES),log P
1,O=C1ON=C(c2ccccc2Cl)C1=Cc1ccc(Br)s1 [I-103],3.94
2,Cc1ccsc1C=C1C(=O)ON=C1c1ccc(Cl)cc1 [I-26],3.70
3,COc1ccc(C2=NOC(=O)C2=Cc2cccs2)c(OC)c1 [U-28],2.68
4,Cc1cccc(C2=NOC(=O)C2=Cc2ccc(C)s2)c1 [I-85],3.67
5,O=C1ON=C(c2ccccc2F)C1=Cc1cccs1 [I-22],2.95
6,O=C1ON=C(c2ccccc2Cl)C1=Cc1cc(-c2ccccc2)cs1 [I-14],4.36
7,Cc1ccsc1C=C1C(=O)ON=C1c1cc(Br)ccc1Cl [I-132],3.97
8,COc1ccc(C2=NOC(=O)C2=Cc2ccc(C)s2)c(OC)c1 [U-25],2.97
9,O=C1ON=C(c2ccccc2Cl)C1=Cc1cc(Br)c(Br)s1 [I-17],4.64
10,O=C1ON=C(c2ccc([N+](=O)[O-])cc2)/C1=C/c1cccs1 [U-40],3.03
11,O=C1ON=C(c2cc(Br)ccc2Cl)C1=Cc1ccc(Cl)s1 [I-138],4.45
12,Cc1c(C=C2C(=O)ON=C2c2ccc(F)cc2)sc2ccccc12 [I-143],4.18
13,O=C1ON=C(c2cccc(F)c2)C1=Cc1ccc([N+](=O)[O-])s1 [I-101],3.41
14,O=C1ON=C(c2ccccc2C(F)(F)F)C1=Cc1cccs1 [I-21],3.03
15,COc1ccc(C2=NOC(=O)C2=Cc2cc(Br)c(Br)s2)cc1 [I-44],4.45
16,O=C1ON=C(c2ccccc2)C1=Cc1sccc1Br [I-109],3.69
17,Cc1ccc(C=C2C(=O)ON=C2c2ccccc2)s1 [U-3],3.27
18,Cc1ccsc1C=C1C(=O)ON=C1c1ccccc1I [I-107],3.56
19,Cc1ccc(C=C2C(=O)ON=C2c2ccc(Cl)cc2)s1 [I-25],3.79
20,O=C1ON=C(c2ccccc2)C1=Cc1ccc(Br)s1 [I-1],3.71
21,COc1cc(OC)cc(C2=NOC(=O)C2=Cc2ccc(C)s2)c1 [U-20],3.48
22,O=C1ON=C(c2ccccc2OCc2ccccc2)C1=Cc1ccc(Br)s1 [I-113],4.48
23,COc1ccc(C2=NOC(=O)C2=Cc2ccc(Br)s2)cc1 [I-49],3.77

# Same assay, conditions: reversed-phase C18 HPLC column; preparation examples; HPLC, acidic range pH 2.7, formic acid; read-out: log P (HCOOH)
row,Structure (SMILES),chromatographic logP
1,CC(C)(C)c1ccc(C2=NOC(=O)C2)cc1 [3-(4-tert-butylphenyl)isoxazol-5(4H)-one],3.1
2,COc1cccc(C2=NOC(=O)C2)c1 [3-(3-methoxyphenyl)isoxazol-5(4H)-one],4.03
3,"Cc1ccc(/C=C2\C(=O)ON=C2c2ccc(C(C)(C)C)cc2)s1 [I-27, 3-(4-tert-butylphenyl)-4-(2-(5-methylthienyl)methylene)isoxazol-5(4H)-one]",4.7
4,"O=C1ON=C(c2ccc(Cl)cc2Cl)/C1=C/c1cccs1 [I-4, 3-(2,4-dichlorophenyl)-4-(2-thienylmethylene)isoxazol-5(4H)-one]",3.72
5,"O=C1CC(c2ccc(Cl)cc2Cl)=NO1 [3-(2,4-dichlorophenyl)isoxazol-5(4H)-one]",2.44
6,"COc1cccc(C2=NOC(=O)/C2=C\c2ccc(Cl)s2)c1 [I-37, 3-(3-methoxyphenyl)-4-(2-(5-chlorothienyl)methylene)isoxazol-5(4H)-one]",3.74
